These are literature values, as cited in paper PMC7306898, “Concentration-Dependent Activity of Hydromethylthionine on Clinical Decline and Brain Atrophy in a Randomized Controlled Trial in Behavioral Variant Frontotemporal Dementia” (Journal of Alzheimer's Disease, 2020).

Structures are written as SMILES. Like-named read-outs stand apart in the source and are kept apart here.

For data set [1] the following is noted: cited from earlier work; for Plasma Half-life, Mean: value in parentheses ref U.S. approved product labeling.
On the set-up of data set [2]: method as in Investigator's Brochure. The following applies: coadministration of reduced leuco (LMT) form with food ref Investigator's Brochure; cited from earlier work.
Data set [3] relates to mitochondrial activity. More on the design: method as in PMID 22419586, PMID 17928358. To be noted: cited from earlier work.
Data set [4] has as its system serotonin transporter. Also on record: method as in PMID 21542830. The following applies: in vitro ref 73; cited from earlier work.
In data set [5] the test system is TDP-43. More on the design: method as in PMID 19560462. To be noted: cell models ref 34; read-out: EC50, inhibition of aggregation of TDP-43; cited from earlier work.
For data set [6], the system named is male rats. More on the design: method as in U.S. National Toxicology Program. To be noted: pancreatic islet cell adenoma and adenoma or carcinoma ref U.S. National Toxicology Program; cited from earlier work.
The test system of data set [7] is subjects with mild or moderate AD. To be noted: cited from earlier work.
Data set [8] has as its system mice. Also on record: method as in U.S. National Toxicology Program. To be noted: cited from earlier work.
Data set [9] has as its system subjects with AD. Also on record: method as in TRx-014-001. The following applies: cited from earlier work.
The test system of data set [10] is subjects with a clinical diagnosis within the FTLD spectrum. Also on record: method as in Investigator's Brochure. The following applies: MTC 138 mg/day MT, cited from earlier work.
Where [11] appears, read: ref U.S. approved product labeling.
[12] abbreviates: single dose ref U.S. approved product labeling.
[13] abbreviates: Biphasic ref U.S. approved product labeling.

Regarding `N[C@@H]1C[C@H]1c1ccccc1` (racemic) [Tr a n yl c yp r o mi n e, Tranylcypromine], the “Plasma Half-life, range or single value” in [1] (setting [11]) is 2.5 h.

Turning to `Oc1ccc2c(c1)N=C(N1CCNCC1)c1cc(Cl)ccc1O2` [8-hydroxyamoxapine], the “Plasma Half-life, range or single value” in data set [1] (setting [11]) was 30 h.

On to `CN(C)CCC=C1c2ccccc2CCc2ccccc21` [Amitriptyline], for which, in data set [1] (setting [11]), the “Plasma Half-life, range or single value” is 9 to 25 h.

In the case of `Clc1ccc2c(c1)C(N1CCNCC1)=Nc1ccccc1O2` [Amo xapine, Amoxapine], the “Plasma Half-life, range or single value” in data set [1] (setting [11]) was 8 h.

As to `CC(NC(C)(C)C)C(=O)c1cccc(Cl)c1` (centres unmarked) [Bupropion], in [1] (setting [11]), the “Plasma Half-life, range or single value” was 12 to 30 h. For the same molecule, the “Plasma Half-life, Mean” value in data set [1] is 21 h.

In the case of `O=C1CC2(CCCC2)CC(=O)N1CCCCN1CCN(c2ncccn2)CC1` [Buspirone], the “Plasma Half-life” value in [1] (setting [12]) is 2 to 3 h.

For the molecule `CN(C)CCCC1(c2ccc(F)cc2)OCc2cc(C#N)ccc21` (centres unmarked) [Citalopram], in [1] (setting [11]), the “Plasma Half-life, range or single value” is 35 h and the “increase in half-life reported in elderly” value is 30-50%.

`CN(C)[C@@H](CCOc1cccc2ccccc12)c1ccccc1` [Dapoxetene]: in [1] (setting [13]), the “Plasma Half-life, initial” value was 1.5 h and the “Plasma Half-life, terminal” value is 20 h.

On to `CNCCC=C1c2ccccc2COc2ccccc21` [Des meth yldoxepin, Desmethyldoxepin], for which the “Plasma Half-life, range or single value” in data set [1] (setting [11]) is 28 to 52 h.

For `CNCCCN1c2ccccc2CCc2ccccc21` [Desipramine], in data set [1] (setting [11]), the “Plasma Half-life, range or single value” was 12 to 27 h.

Regarding `CNCCCN1c2ccccc2CCc2ccc(Cl)cc21` [Desmeth ylclo mipramine, Desmethylclomipramine], the “Plasma Half-life, range or single value” in [1] (setting [11]) was 54 to 77 h. In [1], the “Plasma Half-life, Mean” value is 69 h.

For `CN(C)CC(c1ccc(O)cc1)C1(O)CCCCC1` (centres unmarked) [Desven la fa xin e, Desvenlafaxine], the “Plasma Half-life, range or single value” in data set [1] (setting [11]) is 11 h.

As to `CN(C)CC/C=C1\c2ccccc2CSc2ccccc21` [Dosulepin], in data set [1] (setting [11]), the “Plasma Half-life for “its metabolites”” value was 23 to 46 h and the “Plasma Half-life, range or single value” was 19 to 33 h.

As to `CN(C)CCC=C1c2ccccc2COc2ccccc21` [Doxepin], the “Plasma Half-life, range or single value” in [1] (setting [11]) was 15.3 h.

With `CC(NC(C)(C)C)C(O)c1cccc(Cl)c1` (centres unmarked) [Erythrohydrobupropion], the “Plasma Half-life, range or single value” in data set [1] (setting [11]) is 23 to 43 h. Moreover, in [1], the “Plasma Half-life, Mean” value was 33 h.

With `CN(C)CCC[C@@]1(c2ccc(F)cc2)OCc2cc(C#N)ccc21` [Escitalopram], in [1] (setting [11]), the “Plasma Half-life, range or single value” is 27 to 32 h and the “increase in half-life reported in elderly” value is listed as 50%.

Consider `CNCCC(Oc1ccc(C(F)(F)F)cc1)c1ccccc1` (centres unmarked) [Fluoxetine], for which the “Plasma Half-life” value is 24 to 72 h in data set [1] (Acute ref U.S. approved product labeling) and 96 to 140 h in [1] (Chronic ref U.S. approved product labeling).

As for `COCCCC/C(=N\OCCN)c1ccc(C(F)(F)F)cc1` [Fluvoxamine], the “Plasma Half-life, range or single value” in data set [1] (setting [11]) was 15.6 h.

Take `C[C@H]1NC(C)(C)CO[C@]1(O)c1cccc(Cl)c1` [Hydroxybupropion]: the “Plasma Half-life, range or single value” in data set [1] (setting [11]) was 15 to 25 h. Moreover, in data set [1], the “Plasma Half-life, Mean” value is 20 h.

For `CN(C)c1ccc2c(c1)Sc1cc(N(C)C)ccc1N2` [LMT, leuco-methylthioninium], the “lowering of peak concentrations with food” value in [2] is 8%.

What is called IC50 is the concentration at which inhibition is half-maximal. The EC50 is the concentration at which the effect is half-maximal. In the case of `CN(C)c1ccc2nc3ccc(=[N+](C)C)cc-3sc2c1` [MT, methylthioninium], in data set [3], the “concentrations at which mitochondrial activity is enhanced” value is 10 to 100 nM. Also, the IC50 in data set [4] was 1200 nM. In addition, the EC50 in data set [5] was 50 nM.

As for `CN(C)c1ccc2nc3ccc(=[N+](C)C)cc-3sc2c1` [MTC, methylthioninium chloride], the carcinogenic activity entry is on record as “som e evi dence of carcino genic” in data set [6]; “equi vocal eviden ce of” in data set [8] (female mice, malignant lymphoma ref U.S. National Toxicology Program); “some evidenc e of car cinogeni c activit y” in data set [8] (male mice, carcinoma and adenoma or carcinoma in the small intestine ref U.S. National Toxicology Program). Moreover, the “clinically effective dose available” value in data set [7] (100 mg MTC capsules twice or three times daily, nominal doses 152-228 mg/day ref Baddeley et al., 2015, Wischik et al.) is 72 to 109 mg/day. In data set [7] (placebo-controlled dose-finding Phase II trial ref 47), the “minimum effective dose in AD” value is on record as 138 mg/day. Further, the “methemoglobin, highest value observed” value in data set [9] (Phase 2 study ref TRx-014-001) was 8%. Also, the “Diarrhea and related adverse events” value in data set [9] (highest dose, 228 mg MT/day ref TRx-014-001) is 48%. Further, the “discontinuation due to urinary adverse events” value in data set [9] (including urinary discoloration and staining ref TRx-014-001) is 6%. Moreover, in data set [9] (ref TRx-014-001), the “discontinuation due to diarrhea and related adverse events, overall” value was 16%. The mean methemoglobin levels result in [9] (ref TRx-014-001) was “below 3.5%”. In addition, in data set [9] (ref TRx-014-001), the “subjects discontinued due to vomiting” value is on record as 3%. Further, the “methemoglobin, mean overall” value in data set [9] (those treated with MTC ref TRx-014-001) is 0.8%. In data set [10] (12 months ref Investigator's Brochure), the “MMSE scores, mean above Baseline” value is listed as 1.6 units. In addition, the “ACE-R scores improved by a mean (mean ± SEM)” value in [10] (12 months, 7 subjects, LOCF ref Investigator's Brochure) was 4.5 ± 2.4 units.

Turning to `CNCCCC12CCC(c3ccccc31)c1ccccc12` [Maprotiline], in [1] (setting [11]), the “Plasma Half-life, range or single value” is 51 h.

On to `CCN(CC)C(=O)C1(c2ccccc2)CC1CN` (centres unmarked) [Milnacipran], for which the “Plasma Half-life, range or single value” in data set [1] (setting [11]) was 6 to 8 h.

Turning to `O=C(NCCN1CCOCC1)c1ccc(Cl)cc1` [Moclobemide], the “Plasma Half-life, range or single value” in data set [1] (setting [11]) was 1 to 2 h.

`N[C@H]1CC[C@@H](c2ccc(Cl)c(Cl)c2)c2ccccc21` [N-desmethyls ertraline, N-desmethylsertraline]: the “Plasma Half-life, range or single value” in data set [1] (setting [11]) is 62 to 104 h.

As to `CCc1nn(CCCN2CCN(c3cccc(Cl)c3)CC2)c(=O)n1CCOc1ccccc1` [Nefazodone], the “Plasma Half-life, range or single value” in data set [1] (setting [11]) was 2 to 4 h.

Take `CNCCC=C1c2ccccc2COc2ccccc21` [Nordoxepin]: the “Plasma Half-life, range or single value” in [1] (setting [11]) is 31 h.

Consider `NCCC(Oc1ccc(C(F)(F)F)cc1)c1ccccc1` (centres unmarked) [Norfluoxetine], for which the “Plasma Half-life, Range” value in data set [1] (setting [11]) was 96 to 384 h. For the same molecule, the “Plasma Half-life, Mean” value in [1] is 223 h.

As for `CNCCC=C1c2ccccc2CCc2ccccc21` [Nortriptyline], in data set [1] (setting [11]), the “Plasma Half-life, range or single value” is 16 to 93 h.

Consider `CN(C)CC(c1ccc(O)cc1)C1(O)CCCCC1` (centres unmarked) [O-desmeth ylvenlafaxine, O-desmethylvenlafaxine], for which the “Plasma Half-life, range or single value” in data set [1] (setting [11]) was 9 to 13 h.

As for `Fc1ccc([C@@H]2CCNC[C@H]2COc2ccc3c(c2)OCO3)cc1` [P aroxetine, Paroxetine], in data set [1] (setting [11]), the “Plasma Half-life, range or single value” was 21 h.

Turning to `CNCCCC1c2ccccc2C=Cc2ccccc21` [P rotriptyline, Protriptyline], the “Plasma Half-life, range or single value” in data set [1] (setting [11]) was 55 to 198 h.

As for `NNCCc1ccccc1` [Phenelzine], the “Plasma Half-life” value in [1] (setting [12]) is 11.6 h.

On to `C#CCNC(C)Cc1ccccc1` (stereo not drawn) [R(-)-N -desmeth ylselegiline, R(-)-N-desmethylselegiline], for which, in [1] (setting [11]), the “Plasma Half-life, range or single value” is 18 to 25 h.

In the case of `CN[C@H](C)Cc1ccccc1` [R(-)-methamphetamine], in data set [1] (setting [11]), the “Plasma Half-life, range or single value” is 18 to 25 h.

`C#CCN(C)[C@H](C)Cc1ccccc1` [Selegiline]: the “Plasma Half-life, range or single value” in data set [1] (setting [11]) is 10 h.

Take `CN[C@H]1CC[C@@H](c2ccc(Cl)c(Cl)c2)c2ccccc21` [Sertraline]: the “Plasma Half-life, range or single value” in data set [1] (setting [11]) is 26 h.

Take `C[C@H](NC(C)(C)C)[C@@H](O)c1cccc(Cl)c1` [Threohydrobupropion]: the “Plasma Half-life, range or single value” in data set [1] (setting [11]) was 24 to 50 h. Moreover, the “Plasma Half-life, Mean” value in data set [1] was 37 h.

For the molecule `CC(CN(C)C)CN1c2ccccc2CCc2ccccc21` (centres unmarked) [Tr i mi p r a mi n e, Trimipramine], in data set [1] (setting [11]), the “Plasma Half-life, range or single value” was 11 to 23 h.

As for `O=c1n(CCCN2CCN(c3cccc(Cl)c3)CC2)nc2ccccn12` [Trazodone], in [1] (setting [12]), the “Plasma Half-life” value was 10 h.

With `COc1ccc(C(CN(C)C)C2(O)CCCCC2)cc1` (centres unmarked) [V enlafaxine, Venlafaxine], the “Plasma Half-life, range or single value” in [1] (setting [11]) is 3 to 7 h.

Take `N#Cc1ccc2[nH]cc(CCCCN3CCN(c4ccc5oc(C(N)=O)cc5c4)CC3)c2c1` [V ilazod on e, Vilazodone]: the “Plasma Half-life, range or single value” in data set [1] (setting [11]) was 25 h.

`CCN(CC)C(=O)[C@]1(c2ccccc2)C[C@@H]1CN` [d-milnacipran]: the “Plasma Half-life, range or single value” in data set [1] (setting [11]) is 8 to 10 h.

On to `CCN(CC)C(=O)[C@@]1(c2ccccc2)C[C@H]1CN` [l-enatiomer], for which, in data set [1] (setting [11]), the “Plasma Half-life, range or single value” is 4 to 6 h.
